Patent US20150232876A1, “Use of a Receptor Kinase Having LysM Motifs in Order to Improve the Response of Plants to Lipochitooligosaccharides” (INSTITUT NATIONAL DE LA RECHERCHE AGRONOMIQUE, priority 2012, published 2015)

Tests used:
PpLYR3 = PpLYR3 (Prunus persica, UniProt A0A251NBL6); assay: Equilibrium, saturation and competition binding on PpLYR3 expressed in N. benthamiana leaves
Procedure: (§1) In non-legumes, PpLYR3, SILYR3 and AtLysM-RLK4 genes have been cloned, the corresponding proteins were expressed in N. benthamiana leaves, and their ability to bind to LCOs was determined by binding experiments at equilibrium, as described above for legumes LYR3 proteins.
The interaction of PpLYR3 with the Nod LCO-IV (^35S, C16:2Δ2, 9) factor has been characterized in more detail by means of saturation and competition experiments. The results obtained are illustrated in FIG. 9. […] Similarly, PpLYR3 specifically recognizes the LCOs as interaction with COs (CO-IV and CO-VIII) is of low affinity (Ki>5 μM).

AtLysM-RLK4 = molecular target: T1, AtLysM-RLK4 (Arabidopsis thaliana, UniProt O64825); assay: Equilibrium binding on AtLysM-RLK4 expressed in N. benthamiana leaves
T1 construct: YFP (implied by anti-GFP immunopurification); expressed in transfected cells; host or cells: Nicotiana benthamiana leaves, membrane fraction
T1 sequence (O64825 23-612): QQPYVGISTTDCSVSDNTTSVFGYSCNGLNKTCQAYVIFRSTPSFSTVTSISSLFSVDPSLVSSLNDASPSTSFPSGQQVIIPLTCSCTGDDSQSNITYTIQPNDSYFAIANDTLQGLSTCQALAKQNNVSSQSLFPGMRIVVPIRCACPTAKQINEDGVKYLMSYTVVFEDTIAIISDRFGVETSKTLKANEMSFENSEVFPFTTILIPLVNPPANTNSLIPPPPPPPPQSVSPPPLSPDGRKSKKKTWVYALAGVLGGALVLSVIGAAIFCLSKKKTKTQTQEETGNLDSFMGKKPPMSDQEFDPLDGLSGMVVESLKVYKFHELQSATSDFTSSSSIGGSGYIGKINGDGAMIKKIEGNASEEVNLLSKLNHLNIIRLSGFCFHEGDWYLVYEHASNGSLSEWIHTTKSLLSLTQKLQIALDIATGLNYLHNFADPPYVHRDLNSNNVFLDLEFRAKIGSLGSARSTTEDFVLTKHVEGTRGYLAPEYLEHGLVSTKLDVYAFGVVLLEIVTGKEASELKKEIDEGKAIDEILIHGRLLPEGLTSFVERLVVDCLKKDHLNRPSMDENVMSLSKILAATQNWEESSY
Procedure: as §1

SILYR3 = assay: Equilibrium binding on SILYR3 expressed in N. benthamiana leaves; design: species or system Solanum lycopersicum
Procedure: as §1

PsLYR3 = PsLYR3 (Lathyrus oleraceus, UniProt A0A9D5BD18); assay: Equilibrium, saturation and competitive binding on MtLYR3 ortholog expressed in N. benthamiana leaves; design: species or system Pisum sativum; settings: PsLYR3, 1 nM radioligand
From the text: (§2) In legumes, MtLYR3 orthologs have been identified in P. sativum, P. vulgaris and L. japonicus. In G. max orthologs exist in duplicate due to a duplication of the genome. The corresponding genes have been cloned and sequenced. A few differences in sequence compared with sequences in the databases were found which could be explained by the use of different varieties of plants or by sequencing errors in databases. The cloned genes were introduced into binary vectors, in C-terminal fusion with the fluorescent protein YFP, and introduced into Nicotiana benthamiana leaves using agroinfiltration by Agrobacterium tumefaciens, as described above in Example 3. The membrane fractions were isolated, their protein content was analyzed by electrophoresis under denaturing conditions, followed by immunodetection using anti-GFP antibody as described in Example 3, and their ability to interact with LCOs was determined by equilibrium binding, as described in Example 1, in the presence of 1 nM LCO-IV (S^35, C16:2Δ2, 9). The value of specific binding is determined by the value of difference between the total binding and the nonspecific binding obtained for incubation in the presence of an excess (2 μM) of unlabeled ligand. For comparison, the ability to interact of LjNFR5 and LjNFR1 receptors, identified in L. japonicus to play a role in nodulation by a genetic approach (MADSEN et al, Nature, 425, 637-40, 2003. RADUTOIU et al., Nature, 425, 585-92, 2003a) and respective orthologs of LYK3 and NFP in M. truncatula was determined under the same conditions.
(§3) To further characterize the binding properties of MtLYR3 orthologs to LCOs, saturation and competitive binding experiments in the presence of different COs or LCOs were performed.

LjNFR5 = assay: Equilibrium binding on receptor expressed in N. benthamiana leaves; design: species or system Lotus japonicus; settings: LjNFR5, 1 nM radioligand
From the text: as §2, with “For comparison, the ability to interact of LjNFR5 and LjNFR1 receptors, identified in L. japonicus to play a role in nodulation by a genetic approach (MADSEN et al, Nature, 425, 637-40, 2003. RADUTOIU et al., Nature, 425, 585-92, 2003a) and respective orthologs of LYK3 and NFP in M. truncatula was determined under the same conditions.” left out

LjNFR1 = assay: as above; design: species or system Lotus japonicus; settings: LjNFR1, 1 nM radioligand
From the text: as §2, with “For comparison, the ability to interact of LjNFR5 and LjNFR1 receptors, identified in L. japonicus to play a role in nodulation by a genetic approach (MADSEN et al, Nature, 425, 637-40, 2003. RADUTOIU et al., Nature, 425, 585-92, 2003a) and respective orthologs of LYK3 and NFP in M. truncatula was determined under the same conditions.” left out

GmLYR3-11 = GmLYR3-11 (Glycine max, UniProt I1LHL9); assay: Equilibrium, saturation and competitive binding on MtLYR3 ortholog expressed in N. benthamiana leaves; settings: GmLYR3-11, 1 nM radioligand
From the text: as §2, §3

GmLYR3-1 = GmLYR3-1 (Glycine max, UniProt A5YJW2); assay: as above; settings: GmLYR3-1, 1 nM radioligand
From the text: as §2, §3

PvLYR3 = PvLYR3 (Phaseolus vulgaris, UniProt V7CFC1); assay: as above; settings: PvLYR3, 1 nM radioligand
From the text: as §2, §3

LjLYS12 = LjLYS12 (Lotus japonicus, UniProt D3KTZ9); assay: as above; settings: LjLYS12, 1 nM radioligand
From the text: as §2, §3

PpLYR3, sequence (A0A251NBL6 entry or part of it): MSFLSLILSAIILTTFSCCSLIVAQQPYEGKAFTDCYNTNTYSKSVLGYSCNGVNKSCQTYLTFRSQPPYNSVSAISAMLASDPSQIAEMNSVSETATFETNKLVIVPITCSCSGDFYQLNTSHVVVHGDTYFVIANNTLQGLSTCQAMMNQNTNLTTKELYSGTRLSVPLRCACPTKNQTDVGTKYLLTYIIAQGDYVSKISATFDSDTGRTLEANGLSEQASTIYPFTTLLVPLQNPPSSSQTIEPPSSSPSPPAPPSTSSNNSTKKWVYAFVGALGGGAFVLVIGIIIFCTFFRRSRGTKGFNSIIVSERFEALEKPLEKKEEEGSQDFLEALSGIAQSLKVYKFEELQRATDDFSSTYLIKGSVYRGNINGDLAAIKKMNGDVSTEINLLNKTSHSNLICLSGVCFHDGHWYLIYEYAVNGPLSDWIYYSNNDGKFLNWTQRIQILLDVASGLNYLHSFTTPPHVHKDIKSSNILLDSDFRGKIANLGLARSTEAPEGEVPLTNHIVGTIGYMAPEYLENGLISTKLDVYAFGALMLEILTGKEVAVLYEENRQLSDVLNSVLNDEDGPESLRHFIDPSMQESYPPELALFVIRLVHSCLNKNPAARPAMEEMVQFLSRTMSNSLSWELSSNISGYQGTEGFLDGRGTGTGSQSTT
GmLYR3-1, sequence (A5YJW2 entry or part of it): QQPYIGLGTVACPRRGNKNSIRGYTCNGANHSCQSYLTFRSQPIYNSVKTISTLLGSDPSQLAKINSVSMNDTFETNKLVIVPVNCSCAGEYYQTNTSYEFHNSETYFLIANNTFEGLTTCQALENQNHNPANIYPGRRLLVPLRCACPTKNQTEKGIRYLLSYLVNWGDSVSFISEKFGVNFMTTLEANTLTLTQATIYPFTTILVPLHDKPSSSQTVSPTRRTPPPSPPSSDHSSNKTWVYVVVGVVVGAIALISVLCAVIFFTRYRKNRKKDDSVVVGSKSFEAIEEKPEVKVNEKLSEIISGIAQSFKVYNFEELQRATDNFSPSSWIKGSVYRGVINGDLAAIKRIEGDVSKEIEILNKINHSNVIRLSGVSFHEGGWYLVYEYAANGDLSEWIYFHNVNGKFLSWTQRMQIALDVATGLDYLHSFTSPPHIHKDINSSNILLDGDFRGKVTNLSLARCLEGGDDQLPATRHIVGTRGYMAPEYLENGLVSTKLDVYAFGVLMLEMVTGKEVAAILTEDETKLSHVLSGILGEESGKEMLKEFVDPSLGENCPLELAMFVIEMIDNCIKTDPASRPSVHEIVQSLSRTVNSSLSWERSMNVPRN
PsLYR3, sequence (A0A9D5BD18 entry or part of it): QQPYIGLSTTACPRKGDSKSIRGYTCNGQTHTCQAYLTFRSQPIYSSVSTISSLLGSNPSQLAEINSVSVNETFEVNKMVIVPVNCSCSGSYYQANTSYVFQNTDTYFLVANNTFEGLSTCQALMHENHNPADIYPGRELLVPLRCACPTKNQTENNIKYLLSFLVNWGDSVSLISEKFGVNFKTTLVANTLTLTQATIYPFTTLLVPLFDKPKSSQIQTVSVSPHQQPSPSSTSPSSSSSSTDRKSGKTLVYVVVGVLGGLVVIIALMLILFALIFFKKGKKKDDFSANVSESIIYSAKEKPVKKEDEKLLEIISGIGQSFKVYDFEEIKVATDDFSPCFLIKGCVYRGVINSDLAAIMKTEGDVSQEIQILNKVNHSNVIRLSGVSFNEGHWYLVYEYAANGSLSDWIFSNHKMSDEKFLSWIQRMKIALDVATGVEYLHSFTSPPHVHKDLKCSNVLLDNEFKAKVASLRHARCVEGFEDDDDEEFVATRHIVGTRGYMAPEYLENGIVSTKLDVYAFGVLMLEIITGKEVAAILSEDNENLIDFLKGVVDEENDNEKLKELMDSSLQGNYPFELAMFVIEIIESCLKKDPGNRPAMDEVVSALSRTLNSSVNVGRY
PvLYR3, sequence (V7CFC1 entry or part of it): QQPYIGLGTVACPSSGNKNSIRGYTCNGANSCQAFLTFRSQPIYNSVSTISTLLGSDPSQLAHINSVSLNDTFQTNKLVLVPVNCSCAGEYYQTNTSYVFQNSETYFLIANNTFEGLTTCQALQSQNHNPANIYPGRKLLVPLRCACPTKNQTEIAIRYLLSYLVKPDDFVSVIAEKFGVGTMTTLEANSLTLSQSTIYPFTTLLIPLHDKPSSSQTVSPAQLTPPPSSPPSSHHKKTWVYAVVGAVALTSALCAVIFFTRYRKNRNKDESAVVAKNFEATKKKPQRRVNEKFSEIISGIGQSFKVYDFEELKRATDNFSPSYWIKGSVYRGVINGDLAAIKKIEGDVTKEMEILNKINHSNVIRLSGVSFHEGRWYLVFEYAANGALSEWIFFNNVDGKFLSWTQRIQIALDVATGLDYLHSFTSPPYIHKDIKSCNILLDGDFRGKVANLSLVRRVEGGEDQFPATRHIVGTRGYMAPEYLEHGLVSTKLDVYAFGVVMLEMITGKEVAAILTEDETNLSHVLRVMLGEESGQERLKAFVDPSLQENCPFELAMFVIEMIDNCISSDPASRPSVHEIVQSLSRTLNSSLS
LjLYS12, sequence (D3KTZ9 entry or part of it): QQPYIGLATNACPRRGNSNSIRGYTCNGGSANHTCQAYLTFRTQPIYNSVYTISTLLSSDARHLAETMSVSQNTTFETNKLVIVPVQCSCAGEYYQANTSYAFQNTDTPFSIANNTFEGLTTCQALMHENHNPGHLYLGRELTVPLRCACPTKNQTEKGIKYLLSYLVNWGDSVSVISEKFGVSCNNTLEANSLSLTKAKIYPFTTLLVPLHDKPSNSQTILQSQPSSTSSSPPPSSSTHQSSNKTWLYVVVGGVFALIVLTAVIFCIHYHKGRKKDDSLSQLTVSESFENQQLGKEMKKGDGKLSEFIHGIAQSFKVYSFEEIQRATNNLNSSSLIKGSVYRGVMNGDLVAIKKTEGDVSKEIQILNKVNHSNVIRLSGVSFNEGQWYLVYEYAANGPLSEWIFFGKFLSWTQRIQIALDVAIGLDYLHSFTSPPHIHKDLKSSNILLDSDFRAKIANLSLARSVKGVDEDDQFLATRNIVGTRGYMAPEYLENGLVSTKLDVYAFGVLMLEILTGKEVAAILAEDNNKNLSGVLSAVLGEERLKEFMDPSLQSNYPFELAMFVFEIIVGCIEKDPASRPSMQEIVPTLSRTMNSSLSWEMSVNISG
GmLYR3-11, sequence (I1LHL9 entry or part of it): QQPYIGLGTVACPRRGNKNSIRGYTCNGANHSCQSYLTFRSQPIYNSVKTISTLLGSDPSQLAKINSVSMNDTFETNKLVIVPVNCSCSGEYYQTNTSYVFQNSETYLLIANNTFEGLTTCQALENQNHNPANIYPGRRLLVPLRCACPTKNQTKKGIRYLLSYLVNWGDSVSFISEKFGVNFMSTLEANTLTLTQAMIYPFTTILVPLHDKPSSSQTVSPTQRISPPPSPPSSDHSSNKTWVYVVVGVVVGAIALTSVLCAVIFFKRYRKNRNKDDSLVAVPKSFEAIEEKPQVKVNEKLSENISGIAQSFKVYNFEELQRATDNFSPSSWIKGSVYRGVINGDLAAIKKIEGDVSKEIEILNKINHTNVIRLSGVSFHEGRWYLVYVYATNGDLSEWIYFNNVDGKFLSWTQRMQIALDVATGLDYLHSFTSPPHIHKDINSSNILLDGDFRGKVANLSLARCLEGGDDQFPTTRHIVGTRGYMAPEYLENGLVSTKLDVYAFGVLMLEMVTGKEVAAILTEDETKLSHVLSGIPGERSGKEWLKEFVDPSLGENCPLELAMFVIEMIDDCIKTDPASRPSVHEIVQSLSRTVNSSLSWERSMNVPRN

With CCCCCC/C=C\CCCCC/C=C/C(=O)N[C@H]1[C@H](O[C@H]2[C@H](O)[C@@H](NC(C)=O)[C@H](O[C@H]3[C@H](O)[C@@H](NC(C)=O)[C@H](O[C@H]4[C@H](O)[C@@H](NC(C)=O)C(O)O[C@@H]4COS(=O)(=O)O)O[C@@H]3CO)O[C@@H]2CO)O[C@H](CO)[C@@H](O)[C@@H]1O (some centres unmarked) [LCO-IV (^35S, C16:2Δ2, 9)] the “binding activity of membrane fractions (interaction with radioligand)” value (“binding activity of membrane fractions” for short) (PpLYR3; PpLYR3) was “interacts”, the Kd (PpLYR3; PpLYR3, saturation) was 15 nM and the “binding activity of membrane fractions” value (AtLysM-RLK4) was “no interaction”. The “binding activity of membrane fractions” value (SILYR3) was “very low”, the “binding activity of membrane fractions” value (PsLYR3) was “interact” and the “binding activity of membrane fractions” value (LjNFR5) was “no interaction”. The “binding activity of membrane fractions” value (LjNFR1) was “no interaction”, the “binding activity of membrane fractions” value (GmLYR3-11) was “interact” and the “binding activity of membrane fractions” value (GmLYR3-1) was “interact”. For the same compound, the “binding activity of membrane fractions” value (PvLYR3) was “interact” and the “binding activity of membrane fractions” value (LjLYS12) was “interact”.
